Assay results taken from patent US20200338158A1, “Therapeutic Drug for Non-Alcoholic Fatty Liver Disease” (Shanghai Hep Pharmaceutical Co., Ltd., priority 2017, published 2020).
Entries after “also recorded” stand apart in the source; their conditions may differ.

Experiments:
Format in all cases: in vivo
[1] = test system: C57BL6 mice; assay: Glucose tolerance, fasting insulin and insulin resistance index, mouse NASH model; details: for blood glucose level in glucose tolerance test: treatment groups vs model group; for fasting serum insulin level / insulin resistance HOMA-RI level: vs model group
Source text: As used herein, homeostatic model assessment (HOMA) index may refer HOMA-IR (quantifying the level of insulin resistance) index. The value of HOMA-IR can be calculated by following the formula of: HOMA-IR=[(blood glucose expressed in mmol/L)×(serum insulin expressed in mU/L)]/22.5.
(§1) In this example, a mouse nonalcoholic steatohepatitis (NASH) model was used to evaluate the effect of hepalatide (L47) on pathological changes and metabolism level of NASH, and to determine whether L47 can improve the pathological changes of NASH, so as to provide reference for pharmacodynamic evaluation of L47 before clinical treatment.
5.2.3 Insulin ELISA Test Kit, Cat No.: EZRMI-13K, Millipore Company.
At week 8 and week 16, fasting blood glucose and glucose tolerance (subcutaneous injection of glucose: 2.5 mg/g, preparation concentration: 250 mg/ml) were measured in mice, blood glucose levels were measured at 0, 30, 60, 90 and 120 min after the injection of glucose, and insulin resistance index was calculated according to the fasting insulin level.

[2] = test system: C57BL6 mice; assay: Liver weight and gross liver observation, mouse NASH model (high fat feed + high sugar water)
Source text: as §1
4.1.2 Model group (HFC-F/G): high fat feed+high sugar water, 9 mice in total, wherein 3 mice were sacrificed at week 8, and 6 mice were sacrificed at week 16.
4.1.3 Low dose group 1 (HFC-F/G+HL1): high fat feed+high sugar water+L47 20 mg/kg (10 mg/kg*2/d, i.e. once in the morning and once in the afternoon), 10 mice in total, wherein 3 mice were sacrificed at week 8, and 7 mice were sacrificed at week 16.
4.1.4 High dose group 1 (HFC-F/G+HH1): high fat feed+high sugar water+L47 60 mg/kg (30 mg/kg*2/d, i.e. once in the morning and once in the afternoon), 10 mice in total, wherein 3 mice were sacrificed at week 8, and 7 mice were sacrificed at week 16.
4.1.5 Low dose group 2 (HFC-F/G+HL2): high fat feed+high sugar water+L47 20 mg/kg (10 mg/kg*2/d, i.e. once in the morning and once in the afternoon, with pharmacologic intervention started 8 weeks after initiation of the experiment), 5 mice in total, which are sacrificed after 16 weeks.
4.1.6 High dose group 2 (HFC-F/G+HH2): high fat feed+high sugar water+L47 60 mg/kg (30 mg/kg*2/d, i.e. once in the morning and once in the afternoon, with pharmacologic intervention started 8 weeks after initiation of the experiment), 5 mice in total, which are sacrificed after 16 weeks.
Route of administration: subcutaneous injection.
At week 8 and week 16, liver was separated by dissection after anesthesia and blood collection, and pathological changes of liver tissues and accumulation of abdominal fat were grossly observed by the naked eye.

[3] = test system: C57BL6 mice; assay: Liver biochemistry test, mouse NASH model
Source text: as §1
Hydroxyproline and free fatty acid (FFA) kits (Cat No.: A030-3 and A042-1, respectively) were provided by Nanjing Jiancheng Bioengineering Research Institute;
Triglyceride (TG) and cholesterol (TC) (Cat No.: E1013-105 and E1015 respectively) were provided by Applygen Technologies Inc.
At week 8 and week 16, liver was taken and levels of TG, TC, free fatty acid (FFA), hydroxyproline (HYP) were measured.

[4] = week 16, HL2 (L47 10 mg/kg*2/d s.c., started after 8 weeks)
[5] = week 8, treatment groups (HL1, HH1) vs model group

## hepalatide [L47]
[1]; week 8, 90 min after glucose, p<0.05, p<0.01
  blood glucose level in glucose tolerance test: significantly decreased
[1]; week 8, 120 min after glucose, p<0.01
  blood glucose level in glucose tolerance test: significantly decreased
[1]; week 16, 90 min after glucose
  blood glucose level in glucose tolerance test: decreasing trend
[1]; week 16, 120 min after glucose
  blood glucose level in glucose tolerance test: decreasing trend
[1]; week 16, treatment groups vs model group (conclusions)
  blood glucose: decreased
[1]; week 16, HH1 (L47 30 mg/kg*2/d s.c. from start), p<0.001
  fasting serum insulin level: significantly decreases
[1]; week 16, HH1 (L47 30 mg/kg*2/d s.c. from start), p<0.05
  insulin resistance HOMA-RI level: significantly decreases
[1]; week 16, HH2 (L47 30 mg/kg*2/d s.c., started after 8 weeks)
  insulin resistance HOMA-RI level: decreasing trend
[1]; week 16, HH2 (L47 30 mg/kg*2/d s.c., started after 8 weeks), p<0.001
  fasting serum insulin level: significantly decreases
[1]; week 16, HL1 (L47 10 mg/kg*2/d s.c. from start), p<0.001
  fasting serum insulin level: significantly decreases
[1]; week 16, HL1 (L47 10 mg/kg*2/d s.c. from start), p<0.05
  insulin resistance HOMA-RI level: significantly decreases
[1]; [4]
  fasting serum insulin level: decreasing trend
  insulin resistance HOMA-RI level: no significant difference
[2]; treatment groups vs model group, week 8 implied
  general observation of liver change (color, weight): improved
[2]; week 8, each group (HL1, HH1)
  liver weight: no significant difference
[2]; week 16, low dose group 2 and high dose group 2 vs model group
  general observation of liver change (color, weight): liver colors tended to be normal
[2]; week 16, vs model group, HL2 (L47 10 mg/kg*2/d s.c., started after 8 weeks), p<0.05
  liver weight: decreased significantly
[3]; week 8, high dose group vs model group, p<0.05
  liver FFA level: statistical significance
[3]; [5]
  liver FFA level: decreasing trends; also recorded: decreased significantly
  liver hydroxyproline level: decreasing trends; also recorded: reduced
[3]; week 8, treatment groups (HL1, HH1) vs model group, p<0.001, p≤0.001
  liver TC level: significantly decreased
[3]; week 8, treatment groups (HL1, HH1) vs model group, p≤0.001, p<0.001
  liver TG level: significantly decreased; also recorded: decreased significantly
[3]; week 16, HH1 (L47 30 mg/kg*2/d s.c. from start)
  liver hydroxyproline level: higher
[3]; week 16, HL1 (L47 10 mg/kg*2/d s.c. from start)
  liver hydroxyproline level: higher
[3]; week 16, treatment groups (HL1, HH1, HL2, HH2) vs model group, p<0.001 each
  liver TC level: significantly decreased
[3]; week 16, treatment groups vs model group
  liver FFA level: decreased; also recorded: decreasing trends
[3]; week 16, vs model group, HH1 (L47 30 mg/kg*2/d s.c. from start)
  liver TG level: decreasing trends
[3]; week 16, vs model group, HH2 (L47 30 mg/kg*2/d s.c., started after 8 weeks), more significant, p<0.05
  liver hydroxyproline level: decreased
[3]; week 16, vs model group, HH2 (L47 30 mg/kg*2/d s.c., started after 8 weeks), p<0.05
  liver TG level: significantly decreased
[3]; week 16, vs model group, HL1 (L47 10 mg/kg*2/d s.c. from start)
  liver TG level: decreasing trends
[3]; week 16, vs model group, HL2 (L47 10 mg/kg*2/d s.c., started after 8 weeks)
  liver hydroxyproline level: decreased
[3]; week 16, vs model group, HL2 (L47 10 mg/kg*2/d s.c., started after 8 weeks), p<0.01
  liver TG level: significantly decreased
